In ChEMBL document CHEMBL5725522, “Inhibitors of bruton's tyrosine kinase” (2017):

Molecular target: Tyrosine-protein kinase BTK (Homo sapiens, UniProt Q06187)
Test: TR-FRET (Time Resolved FRET) Assay: This BTK competition assay measures compound potency (IC50) for the inactivated state of Bruton's Tyrosine Kinase using FRET (Förster/Fluorescence Resonance Energy Transfer) technology. The BTK-Eu complex was incubated on ice one hour prior to use at a starting concentration of 50 nM BTK-Bioease: 10 nM Eu-streptavidin (Perkin-Elmer Catalog#AD0062). The assay buffer consisted of 20 mM HEPES (pH 7.15), 0.1 mM DTT, 10 mM MgCl2, 0.5 mg/ml BSA with 3% Kinase Stabilizer (Fremont Biosolutions, Catalog #STB-K02). After 1 h, the reaction mixture from above was diluted 10 fold in assay buffer to make 5 nM BTK: 1 nM Eu-Streptavidin complex (donor fluorophore). 18 μl of a mixture of 0.11 nM BTK-Eu and 0.11 nM Kinase Tracer 178 (Invitrogen, Catalog #PV5593,) with BTK-Eu alone as no negative control, was then dispensed into 384-well flat bottom plates (Greiner, 784076). Compounds to be tested in assay were prepared as 10× concentrations and serial dilution in half-log increments was performed in DMSO so as to generate 10 point curves. […]

Sequence of Tyrosine-protein kinase BTK (Q06187 whole entry): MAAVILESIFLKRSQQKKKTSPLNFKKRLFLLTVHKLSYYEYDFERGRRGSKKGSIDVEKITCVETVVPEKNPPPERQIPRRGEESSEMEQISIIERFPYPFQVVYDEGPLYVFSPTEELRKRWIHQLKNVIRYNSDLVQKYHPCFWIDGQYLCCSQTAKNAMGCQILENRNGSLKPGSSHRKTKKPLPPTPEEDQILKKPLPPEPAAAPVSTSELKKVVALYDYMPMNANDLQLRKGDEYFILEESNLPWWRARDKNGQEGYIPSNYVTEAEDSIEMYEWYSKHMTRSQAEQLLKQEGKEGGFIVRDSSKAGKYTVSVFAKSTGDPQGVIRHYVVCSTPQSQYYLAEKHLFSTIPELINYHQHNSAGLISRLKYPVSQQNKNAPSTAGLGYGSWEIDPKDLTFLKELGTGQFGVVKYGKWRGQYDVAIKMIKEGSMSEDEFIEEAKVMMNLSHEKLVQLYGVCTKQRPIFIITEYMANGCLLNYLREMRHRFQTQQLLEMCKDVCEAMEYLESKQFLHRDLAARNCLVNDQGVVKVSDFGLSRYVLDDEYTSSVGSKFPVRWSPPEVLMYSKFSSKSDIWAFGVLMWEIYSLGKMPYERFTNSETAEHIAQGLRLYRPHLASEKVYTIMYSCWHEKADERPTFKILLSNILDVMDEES

IC50 | Structure (SMILES)
> 100000 nM | O=C(c1cc2cc(C(=O)N3CCOCC3)ccc2[nH]1)c1cnn2c1[nH]c(=O)c1cc(Oc3cccc(F)c3F)ccc12
2.9 nM | CN1CCC(NC(=O)c2ccc3[nH]c(C(=O)c4cnn(-c5ccc(Oc6ccccc6C(=O)N(C)C)cc5Cl)c4N)cc3c2)C1 (configuration not stated)
